# Reference: ChEMBL document CHEMBL3808359, “Conformational analysis of 2-substituted piperazines” (Bioorg Med Chem Lett, 2016)
# Biological target: Neuronal acetylcholine receptor subunit alpha-7 (Homo sapiens, UniProt P36544)
# Assay: Agonist activity at alpha7 nAChR (unknown origin)
# Neuronal acetylcholine receptor subunit alpha-7, sequence (P36544 whole entry): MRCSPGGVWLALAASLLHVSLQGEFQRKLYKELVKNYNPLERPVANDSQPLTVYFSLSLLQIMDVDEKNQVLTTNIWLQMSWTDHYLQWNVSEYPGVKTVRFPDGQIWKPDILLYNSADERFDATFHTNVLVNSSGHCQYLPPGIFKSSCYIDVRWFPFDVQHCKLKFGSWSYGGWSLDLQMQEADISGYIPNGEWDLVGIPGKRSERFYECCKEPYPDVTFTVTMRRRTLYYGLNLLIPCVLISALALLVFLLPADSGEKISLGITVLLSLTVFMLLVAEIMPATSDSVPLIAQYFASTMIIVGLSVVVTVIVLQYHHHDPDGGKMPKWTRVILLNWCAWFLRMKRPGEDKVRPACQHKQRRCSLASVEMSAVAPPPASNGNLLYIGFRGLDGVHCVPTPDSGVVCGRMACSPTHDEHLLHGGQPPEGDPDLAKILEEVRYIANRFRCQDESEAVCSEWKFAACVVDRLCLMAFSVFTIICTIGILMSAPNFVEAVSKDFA
row,SMILES,IC50 [µM]
1,c1cncc(OC[C@H]2CNCCN2c2nc3ncccc3o2)c1,0.006
2,COc1ccc(NC(=O)N2CCNCC2CCc2cccnc2)cc1 (stereo not given),> 5
3,COc1ccc(NC(=O)N2CCNCC2COc2cccnc2)cc1 (stereo not given),0.011
4,COc1ccc(OC(=O)N2CCNCC2CCc2cccnc2)cc1 (stereo not given),> 5
5,COc1ccc(NC(=O)N2CCNC[C@@H]2COc2cccnc2)cc1,0.019
